Test results taken from BigSolDB 2.1.

O=c1c(O)c(-c2ccc(O)c(O)c2)oc2cc(O)cc(O)c12
solubility (mole fraction)
Conditions | 292.8 K | 298.6 K | 303.2 K | 308.6 K | 314.1 K | 318.8 K | 322.2 K | 325.6 K | 331.2 K | 333.8 K
in ethanol | 0.00135 | 0.00153 | 0.00165 | 0.00178 | 0.00193 | 0.00207 | 0.00218 | 0.0023 | 0.0025 | 0.00255
in methanol | 0.000845 | 0.000919 | 0.000957 | 0.00104 | 0.00113 | 0.00127 | 0.00133 | 0.00142 | 0.00159 | 0.00163
in water | 5.04e-05 | 5.51e-05 | 5.85e-05 | 6.18e-05 | 6.53e-05 | 6.7e-05 | 6.91e-05 | 7.13e-05 | 7.38e-05 | 7.53e-05
